Columns and labels:
Format in all cases: cell-based
[1] = test system: alpha-smooth muscle actin (α-SMA); test: Inhibition of TGF-β induced expression of alpha-smooth muscle actin in CFSC cells (western blot); settings: compound at 10 μM, TGF-β (10 ng/mL), 24 hours
Procedure: The ability of a compound to inhibit the TGF-β induced expression of alpha-smooth muscle actin (α-SMA) was evaluated in CCl4-treated fat storing (CFSC) cells. α-SMA is considered as a reliable marker of hepatic stellate cell activation and a key biomarker for liver fibrosis.
CFSC cells maintained in a DMEM medium supplemented with 10% fetal bovine serum were seeded to 12-well culture dishes and grown to a confluence of 60-70% the next day. Culture was changed to a serum-free DMEM medium and the cells were treated with the compound at 10 μM in the presence of TGF-β (10 ng/mL). The cells were incubated for another 24 hours. All culture was maintained at 37° C. in 5% carbon dioxide.
An NP-40 lysate solution (50 mM Tris, pH 7.4, 150 mM NaCl, 1% NP-40) with EDTA free cocktail added was used to lyse the cells on ice for 30 min. The lysate was collected and centrifuged at 4° C. for 10 min at 12,000 rpm. The pellet was discarded and the supernatant was transferred to a new tube. The cell lysate was loaded with 5× loading buffer and boiled for 10 min, resolved by 10% SDS-polyacrylamide gel electrophoresis (SDS-PAGE), and transferred to a PVDF membrane. The membrane was blocked with 5% skim milk in Tris-buffered saline and TWEEN® 20 (TBST; 10 mM Tris-HCl, pH 8.0, 150 mM NaCl, 0.1% TWEEN® 20) for 1 h at room temperature and then incubated with α-SMA and β-actin antibodies overnight at 4° C. After washing twice with TBST, the membrane was probed with a […] anti-immunoglobulin (1:5000 dilution) for 1 h at room temperature. After two subsequent rinses in TBST, immunoreactive products were reacted with ECL and visualized by a UVP CHEMSTUDIO™ imaging system. The western blotting bands are quantitated using an ImageJ software. The percentage of inhibition was obtained by calculating the percentage decrease in the band intensity compared to the one treated with TGF-β only.
The results are summarized in Table 1, where A represents a value no less than 80/% inhibition, B represents a value less than 80% but no less than 50% inhibition, C represents a value less than 50% but no less than 30% inhibition, and D represents a value less than 30% inhibition with a compound at 10 μM.

SW480 (colon cancer) = test: Antiproliferative activity, CCK-8 cell viability; settings: Homo sapiens, 72 h, read-out: Inhibition of Cancerous Cells, SW480
Procedure: (§1) The antiproliferative activity of a compound was determined in the following cell lines: MDA-MB-231 (breast cancer), HepG2 (liver cancer), SW480 (colon cancer), B16F10 (malignant melanoma), A431 (epidermoid carcinoma), A549 (lung adenocarcinoma), and HeLa (cervical cancer). MDA-MB-231, HepG2, SW480, B16F10, and A431 cells were cultured in Dulbecco's modified Eagle's medium (DMEM) containing 10% fetal bovine serum (FBS). HeLa cells were cultured in MEM/EBSS (MEM) containing 10% FBS. A549 cells were maintained in Kaighn's modification of Ham's F-12 medium containing 10% FBS. The Cell Counting Kit-8 (CCK-8) assay was used to determine the cell viability of cells following treatment with the compound.
(§2) Briefly, cells were seeded in a 96-well plate at a density of 2,000-5,000 cells/well. Following attachment, the cells were treated with the compound in media at a compound concentration of 3.3 μM, 10 μM, or 30 μM, or DMSO as a control. After the cells were incubated at 37° C. for 72 h, the CCK-8 solution (10 μL) was added to each well. After incubation at 37° C. for 4 h, the absorbance value of each well was determined using a multi-well plate reader at 450 nm. The percentage of cell viability was determined with respect to the DMSO-treated cells. The results were summarized in Table 2-4 below, wherein A represents no less than 50% inhibition of cell growth; B represents less than 50% but no less than 30% inhibition of cell growth; C represents less than 30% inhibition of cell growth.

[2] = test system: A549 (lung adenocarcinoma); test: Antiproliferative activity, CCK-8 cell viability; settings: Homo sapiens, 72 h, read-out: Inhibition of Cancerous Cells, A549
Procedure: as §1, §2

HeLa (cervical cancer) = test: Antiproliferative activity, CCK-8 cell viability; settings: Homo sapiens, 72 h, read-out: Inhibition of Cancerous Cells, HELA
Procedure: as §1, §2

HepG2 (liver cancer) = test: Antiproliferative activity, CCK-8 cell viability; settings: Homo sapiens, 72 h, read-out: Inhibition of Cancerous Cells, HepG2
Procedure: as §1, §2

[3] = test system: B16F10 (malignant melanoma); test: Antiproliferative activity, CCK-8 cell viability; settings: Mus musculus, B16-F10, 72 h, read-out: Inhibition of Cancerous Cells, B16F10
Procedure: as §1, §2

[4] = test system: MDA-MB-231 (breast cancer); test: Antiproliferative activity, CCK-8 cell viability; settings: Homo sapiens, 72 h, read-out: Inhibition of Cancerous Cells, MDA-MB-231
Procedure: as §1, §2

[5] = compound concentration of 3.3 μM
[6] = compound concentration of 10 μM
[7] = compound concentration of 30 μM

Compound | inhibition at 10 µM [1] [%] | further results
CC1=C(CC(=O)N(C)O)c2cc(F)ccc2/C1=C\c1ccc(C2CC2)cc1 [Compound B3, (Z)-2-(1-(4-Cyclopropylbenzylidene)-5-fluoro-2-methyl-1H-inden-3-yl)-N-hydroxy-N-methylacetamide] | ≥ 80 | 
COc1ccc2c(c1)/C(=C\c1ccc(Oc3ccccc3)cc1)C(C)=C2CC(=O)O [Compound D29, 2-[(1Z)-6-Methoxy-1-(4-(phenoxy)benzylidene)-2-methyl-1H-inden-3-yl]-acetic acid] | 50 to 80 | 
CC(C)CC1=C(CC(=O)O)c2cc(F)ccc2/C1=C\c1ccc(Oc2ccc(F)cc2)cc1 [Compound D8, 2-[(1Z)-5-Fluoro-1-{[4-(4-fluorophenoxy)phenyl]methylidene}-2-(2-methyl-propyl)-1H-inden-3-yl]acetic acid] | ≥ 80 | 
CC1=C(CC(=O)NO)c2cc(F)ccc2/C1=C/c1ccc(C(C)(C)C)cc1 [Compound E6, (E)-2-(1-(4-(Tert-butyl)benzylidene)-5-fluoro-2-methyl-1H-inden-3-yl)-N-hydroxyacetamide] | 50 to 80 | 
CC1=C(CC(=O)N(C)O)c2cc(F)ccc2/C1=C\c1ccc(C)c2ccccc12 [Compound C1, (Z)-2-(5-Fluoro-2-methyl-1-((4-methylnaphthalen-1-yl)methylene)-1H-inden-3-yl)-N-hydroxy-N-methylacetamide] | 50 to 80 | 
CC1=C(CC(N)=O)c2cc(F)ccc2/C1=C\c1ccc(C(C)(C)C)cc1 [Compound D41, (Z)-2-(1-(4-(Tert-butyl)benZylidene)-5-fluoro-2-methyl-1H-inden-3-yl)acetamide] | ≥ 80 | 
CC1=C(CC(=O)O)c2cc(F)ccc2/C1=C\c1ccc(F)cc1OCc1ccccc1 [Compound A7, 2-[(1Z)-1-{[2-(Benzyloxy)-4-fluorophenyl]methylidene}-5-fluoro-2-methyl-1H-inden-3-yl]acetic acid] | < 30 | 
CC1=C(CC(=O)O)c2cc(F)ccc2/C1=C\c1ccc(Br)c2ccccc12 [Compound C3, (Z)-2-(1-((4-Bromonaphthalen-1-yl)methylene)-5-fluoro-2-methyl-1H-inden-3-yl)acetic acid] | ≥ 80 | 
CC1=C(CC(=O)O)c2cc(F)ccc2/C1=C\c1ccnc2ccccc12 [Compound C5, (Z)-2-(5-Fluoro-2-methyl-1-(quinolin-4-ylmethylene)-1H-inden-3-yl)acetic acid] | ≥ 80 | 
COc1ccc2c(c1)C(CC(=O)O)=C(C)/C2=C/c1ccc(Oc2ccc(F)cc2)cc1 [Compound D10, 2-[(1Z)-5-Methoxy-2-methyl-1-({4-[4-fluorophenoxy]phenyl}methylidene)-1H-inden-3-yl]acetic acid] | ≥ 80 | 
COc1ccc2c(c1)C(CC(=O)O)=C(C)/C2=C/c1ccc(Oc2ccccc2)cc1 [Compound D11, 2-[(1Z)-5-Methoxy-2-methyl-1-[(4-phenoxyphenyl)methylidene]-1H-inden-3-yl]acetic acid] | ≥ 80 | 
CC1=C(CC(=O)NO)c2cc(F)ccc2/C1=C\c1ccnc2ccccc12 [Compound C6, (Z)-2-(5-Fluoro-2-methyl-1-(quinolin-4-ylmethylene)-1H-inden-3-yl)-N-hydroxyacetamide] | ≥ 80 | 
CC1=C(CC(=O)O)c2cc(F)ccc2/C1=C\c1ccc(Oc2cccc(C(C)(C)C)c2)cc1 [Compound D3, 2-[(1Z)-5-Fluoro-2-methyl-1-({4-[3-(tert-butyl)phenoxy]phenyl}methylidene)-1H-inden-3-yl]acetic acid] | ≥ 80 | 
CC1=C(CC(=O)O)c2cc(F)ccc2/C1=C\c1cccc(Oc2ccc(C#N)cc2)c1 [Compound D24, 2-[(1Z)-5-Fluoro-2-methyl-1-({3-[4-cyanophenoxy]phenyl}methylidene)-1H-inden-3-yl]acetic acid] | ≥ 80 | 
CC1=C(CC(=O)O)c2cc(F)ccc2/C1=C/c1ccc(Oc2ccccc2)cc1 [Compound E3, 2-[(1E)-5-Fluoro-2-methyl-1-[(4-phenoxyphenyl)methylidene]-1H-inden-3-yl]acetic acid] | ≥ 80 | 
CC1=C(CC(=O)O)c2cc(F)ccc2/C1=C\c1ccc(Oc2ccc(C)c(F)c2)cc1 [Compound D4, 2-[(1Z)-5-Fluoro-2-methyl-1-({4-[3-fluoro-4-methylphenoxy]phenyl}-methylidene)-1H-inden-3-yl]acetic acid] | ≥ 80 | 
CC1=C(CC(=O)O)c2cc(F)ccc2/C1=C\c1ccc(COc2ccc(F)cc2)cc1 [Compound A1, 2-[(1Z)-5-Fluoro-1-(4-((4-fluorophenoxy)methyl)benzylidene)-2-methyl-1H-inden-3-yl]-acetic acid] | ≥ 80 | 
COc1ccc2c(c1)/C(=C\c1cccc(Oc3ccccc3)c1)C(C)=C2CC(=O)O [Compound D35, 2-[(1Z)-6-Methoxy-1-(3-(phenoxy)benzylidene)-2-methyl-1H-inden-3-yl]-acetic acid] | < 30 | 
O=C(O)CC1=C/C(=C/c2ccc(Oc3ccc(F)cc3)cc2)c2ccccc21 [Compound D32, 2-[(1Z)-1-{[4-(4-Fluorophenoxy)phenyl]methylidene}-1H-inden-3-yl]acetic acid] |  | inhibition at 3.3 µM (SW480 (colon cancer); [5]): < 30%; inhibition at 10 µM (SW480 (colon cancer); [6]): < 30%; inhibition at 30 µM (SW480 (colon cancer); [7]): < 30%; inhibition at 3.3 µM [2, 5]: < 30%; inhibition at 10 µM [2, 6]: < 30%; inhibition at 30 µM [2, 7]: 30 to 50%; inhibition at 3.3 µM (HeLa (cervical cancer); [5]): 30 to 50%; inhibition at 10 µM (HeLa (cervical cancer); [6]): 30 to 50%; inhibition at 30 µM (HeLa (cervical cancer); [7]): ≥ 50%; inhibition at 3.3 µM (HepG2 (liver cancer); [5]): ≥ 50%; inhibition at 10 µM (HepG2 (liver cancer); [6]): ≥ 50%; inhibition at 30 µM (HepG2 (liver cancer); [7]): ≥ 50%; inhibition at 3.3 µM [3, 5]: < 30%; inhibition at 10 µM [3, 6]: 30 to 50%; inhibition at 30 µM [3, 7]: ≥ 50%; inhibition at 3.3 µM [4, 5]: < 30%; inhibition at 10 µM [4, 6]: < 30%; inhibition at 30 µM [4, 7]: 30 to 50%

— patent US20240116845A1, “INDENE COMPOUNDS, PHARMACEUTICAL COMPOSITIONS THEREOF, AND THEIR THERAPEUTIC APPLICATIONS” (NucMito Pharmaceuticals Co., Ltd., priority 2021, published 2024)
